PubChem BioAssay AID1963432 (Molecular Pharmacology Branch, DTP, NCI, 2024)

System: SYO-1 complex spheroid growth, percent test/control
Test: Anticancer human tumor SYO-1 cell line growth inhibition [Asc];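 note: compound exposure lasted 7 days after spheroids grew 3 days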;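 for viability, T/C: 100% = DMSO vehicle control viability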
Conditions: for IC50: curve of first compound; for viability, T/C: stronger effect = lower value
Summary of the method: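 Complex spheroids combining tumor cells with HUVEC endothelial cells and human MSCs, at 37 degrees C, 5% CO2; agents tested alone or combined, half-log dilutions from at or near clinical Cmax, or 10 microM if Cmax unknown.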

[1] = second compound 0.01 µM, first compound 0.00316 µM
[2] = second compound 0.01 µM, first compound 0.01 µM
[3] = second compound 0.01 µM, first compound 0.0316 µM
[4] = second compound 0.01 µM, first compound 0.1 µM
[5] = second compound 0.01 µM, first compound 0.316 µM
[6] = second compound 0.01 µM, first compound 1 µM
[7] = second compound 0.0316 µM, first compound 0.00316 µM
[8] = second compound 0.0316 µM, first compound 0.01 µM
[9] = second compound 0.0316 µM, first compound 0.0316 µM
[10] = second compound 0.0316 µM, first compound 0.1 µM
[11] = second compound 0.0316 µM, first compound 0.316 µM
[12] = second compound 0.0316 µM, first compound 1 µM
[13] = second compound 0.1 µM, first compound 0.00316 µM
[14] = second compound 0.1 µM, first compound 0.01 µM
[15] = second compound 0.1 µM, first compound 0.0316 µM
[16] = second compound 0.1 µM, first compound 0.1 µM
[17] = second compound 0.1 µM, first compound 0.316 µM
[18] = second compound 0.1 µM, first compound 1 µM
[19] = second compound 0.316 µM, first compound 0.00316 µM
[20] = second compound 0.316 µM, first compound 0.01 µM
[21] = second compound 0.316 µM, first compound 0.0316 µM
[22] = second compound 0.316 µM, first compound 0.1 µM
[23] = second compound 0.316 µM, first compound 0.316 µM
[24] = second compound 0.316 µM, first compound 1 µM
[25] = second compound 1 µM, first compound 0.00316 µM
[26] = second compound 1 µM, first compound 0.01 µM
[27] = second compound 1 µM, first compound 0.0316 µM
[28] = second compound 1 µM, first compound 0.1 µM
[29] = second compound 1 µM, first compound 0.316 µM
[30] = second compound 1 µM, first compound 1 µM

SMILES	IC50 (second compound 0.01 µM)	IC50 (second compound 0.0316 µM)	IC50 (second compound 0.1 µM)	IC50 (second compound 0.316 µM)	IC50 (second compound 1 µM)	viability, T/C [1]	viability, T/C [2]	viability, T/C [3]	viability, T/C [4]	viability, T/C [7]	viability, T/C [8]	viability, T/C [9]	viability, T/C [10]	viability, T/C [13]	viability, T/C [14]	viability, T/C [15]	viability, T/C [16]	viability, T/C [19]	viability, T/C [20]	viability, T/C [21]	also measured
CCN1CCN(Cc2ccc(Nc3ncc(F)c(-c4cc(F)c5nc(C)n(C(C)C)c5c4)n3)nc2)CC1 + CNC(C)C(=O)NC1CN(S(=O)(=O)c2cccc(S(=O)(=O)N3CCC4CCC(C(=O)NC(c5ccccc5)c5ccccc5)N4C(=O)C(NC(=O)C(C)NC)C3)c2)CCC2CCC(C(=O)NC(c3ccccc3)c3ccccc3)N2C1=O	> 1000 nM	> 1000 nM	> 1000 nM	> 1000 nM	> 1000 nM	110%	114%	108%	111%	101%	101%	105%	110%	102%	101%	96.7%	106%	97.6%	103%	108%	viability, T/C [5]: 109%; viability, T/C [6]: 116%; viability, T/C [11]: 112%; viability, T/C [12]: 114%; viability, T/C [17]: 105%; viability, T/C [18]: 108%; viability, T/C [22]: 100%; viability, T/C [23]: 109%; viability, T/C [24]: 115%; viability, T/C [25]: 101%; viability, T/C [26]: 101%; viability, T/C [27]: 103%; viability, T/C [28]: 110%; viability, T/C [29]: 101%; viability, T/C [30]: 101%
Cn1ncnc1[C@H]1c2n[nH]c(=O)c3cc(F)cc(c23)N[C@@H]1c1ccc(F)cc1 + CNC(C)C(=O)NC1CN(S(=O)(=O)c2cccc(S(=O)(=O)N3CCC4CCC(C(=O)NC(c5ccccc5)c5ccccc5)N4C(=O)C(NC(=O)C(C)NC)C3)c2)CCC2CCC(C(=O)NC(c3ccccc3)c3ccccc3)N2C1=O	> 100 nM	> 100 nM	> 100 nM	> 100 nM	> 100 nM	103%	91.8%	76.8%	82.9%	103%	98.3%	75.8%	86.3%	96.8%	93.4%	75.4%	86.3%	95%	92.1%	66.8%	viability, T/C (second compound 0.01 µM, first compound 0.000316 µM): 107%; viability, T/C (second compound 0.01 µM, first compound 0.001 µM): 106%; viability, T/C (second compound 0.0316 µM, first compound 0.000316 µM): 101%; viability, T/C (second compound 0.0316 µM, first compound 0.001 µM): 102%; viability, T/C (second compound 0.1 µM, first compound 0.000316 µM): 108%; viability, T/C (second compound 0.1 µM, first compound 0.001 µM): 93.6%; viability, T/C (second compound 0.316 µM, first compound 0.000316 µM): 112%; viability, T/C (second compound 0.316 µM, first compound 0.001 µM): 103%; viability, T/C [22]: 86.4%; viability, T/C (second compound 1 µM, first compound 0.000316 µM): 98.2%; viability, T/C (second compound 1 µM, first compound 0.001 µM): 107%; viability, T/C [25]: 96.3%; viability, T/C [26]: 93.6%; viability, T/C [27]: 78.9%; viability, T/C [28]: 85.7%
O=C(c1ccc(F)c(F)c1Nc1ccc(I)cc1F)N1CC(O)([C@@H]2CCCCN2)C1 + CNC(C)C(=O)NC1CN(S(=O)(=O)c2cccc(S(=O)(=O)N3CCC4CCC(C(=O)NC(c5ccccc5)c5ccccc5)N4C(=O)C(NC(=O)C(C)NC)C3)c2)CCC2CCC(C(=O)NC(c3ccccc3)c3ccccc3)N2C1=O	> 1000 nM	> 1000 nM	> 1000 nM	> 1000 nM	> 1000 nM	97.8%	105%	102%	98.1%	106%	106%	95.2%	95.2%	99.5%	106%	105%	92.1%	113%	104%	99.6%	viability, T/C [5]: 97.6%; viability, T/C [6]: 103%; viability, T/C [11]: 95%; viability, T/C [12]: 94.5%; viability, T/C [17]: 96.9%; viability, T/C [18]: 93.6%; viability, T/C [22]: 96%; viability, T/C [23]: 99.8%; viability, T/C [24]: 97.8%; viability, T/C [25]: 97.7%; viability, T/C [26]: 103%; viability, T/C [27]: 113%; viability, T/C [28]: 98.4%; viability, T/C [29]: 92.4%; viability, T/C [30]: 91.2%
